The values that follow come from article PMC3991622, “Immobilised Histidine Tagged β 2-Adrenoceptor Oriented by a Diazonium Salt Reaction and Its Application in Exploring Drug-Protein Interaction Using Ephedrine and Pseudoephedrine as Probes” (PLoS ONE, 2014).

One assay deals with T1, Immobilized β 2-AR.
T1 construct: made in house; host or cells: E. coli BL21 (DE3)
Description: Specificity and stability of the oriented β 2-AR column (retention of control drugs). The assay is classed as binding, Sus scrofa. The conditions noted are these: 20 mM phosphate buffer (pH 7.4), 0.2 mL/min; for Retention times, Immobilized β 2-AR: 37 °C, void time 1.6 min. Here is the method: (§1) The column containing the oriented immobilised β 2-AR was prepared by packing the stationary phase into a stainless steel column (2.1 mm×5.0 cm) using the slurry method at a pressure of 4.0×10^7 Pa. Phosphate buffer (20 mM, pH 7.4) was used as the slurry solution. The control column containing exposed silica gel and attached histidine was prepared using the same synthesis method as that of the β 2-AR column.
(§2) The mobile phases were prepared by adding 0 to 40 µM of ephedrine hydrochloride as the competing agent to 20 mM phosphate buffer (pH 7.4). All of the mobile phases were filtrated with 0.45 µm Millipore HV filters and degassed by ultrasonication before HPAC analysis. Working solutions of ephedrine and pseudoephedrine were prepared by dissolving the drugs in phosphate buffer (20 mM, pH 7.4) to a concentration of 1.0 mM. The detection wavelength was 220 nm with an injection of 5.0 µL for each drug. The flow rate was 0.2 mL/min for all of the analyses. […] The capacity factor (k') was calculated by detecting the retention time in triplicate for each injected sample using the equation k' = (tR−t0)/t0. When the injection solute was pseudoephedrine, Eq. (1) was used to plot the curve of 1/(k'-X) and [A], whereas Eq. (2) was used to achieve the plot between [drawing 5] and [A] when ephedrine was used as the analyte.
The specificity of the oriented β 2-AR column was tested by determining the retention times of specific drugs on the receptor.

The target of assay [1] is T2, β 2-AR (Sus scrofa, UniProt Q28997).
T2 construct: made in house; host or cells: E. coli BL21 (DE3)
T2 sequence (Q28997 whole entry): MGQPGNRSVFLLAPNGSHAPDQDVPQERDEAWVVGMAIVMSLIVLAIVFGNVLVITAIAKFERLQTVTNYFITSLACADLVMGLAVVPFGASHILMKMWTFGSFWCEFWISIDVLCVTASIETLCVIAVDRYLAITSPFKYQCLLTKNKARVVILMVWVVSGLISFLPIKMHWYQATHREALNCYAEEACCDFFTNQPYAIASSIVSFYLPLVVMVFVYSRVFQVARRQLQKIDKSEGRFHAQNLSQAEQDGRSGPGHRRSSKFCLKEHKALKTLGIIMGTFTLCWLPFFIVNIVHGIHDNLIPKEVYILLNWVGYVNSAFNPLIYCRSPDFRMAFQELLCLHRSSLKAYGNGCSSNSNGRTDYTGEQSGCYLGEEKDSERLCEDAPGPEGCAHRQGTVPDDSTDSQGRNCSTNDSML
The experiment in a line: Zonal elution on oriented immobilised β 2-AR column (HPAC). Type of assay: binding. The conditions noted are these: for concentration of the binding site / capacity factor k′ / association constant / association constant KA: 37 °C; for types of binding site on β 2-AR: linear zonal elution plot. Here is the method:
The binding of ephedrine and pseudoephedrine to the oriented immobilised β 2-AR was determined by zonal elution. The theory assumes that a known concentration of a competing agent (I) continuously passes through a column containing an immobilised ligand (L) while the injecting volume of an analyte (A) is small enough to be neglected compared with the concentration of I in the mobile phase. Assuming I and A have direct competition at a single binding site on L and the interactions have association/dissociation kinetics, Eq. (1) can be used to calculate the binding of A and I to L [24], [25]. [drawing 1] (1) where X is the capacity factor for A due to the existence of a second type of binding site on the column, and k' is the overall capacity factors of A ascribed to all the types of sites. In this case, the equation assumes the capacity factors of A produced by the individual sites are additive, and an independent estimate of the capacity factors due to the second type of site can be obtained, allowing for the capacity factor attributed to the first type of site 1 (Site 1) to be measured by k 1' = k'-X.
When the column is equilibrated with an eluent at concentration [A] and [I] equal to zero, and the retention of compound A is injected as a perturbation, Eq. (2) is used to determine the binding of A to L: [drawing 2] (2)
Assuming a single type of binding site, a linear expression can be obtained by plotting 1/sqrt (k') as a function of [A] to determine mL and K A. For two types of binding sites, a second term is added to the k' expressions.
as §1, §2

Assay [2] deals with β 2-AR. The settings on record: on β 2-AR; response relative to isoproterenol; cited from earlier work.
Assay [3] addresses T2, β 2-AR. Description: Thermodynamic study (zonal elution at 10-45 °C, van't Hoff equation) on oriented immobilised β 2-AR. Type of assay: binding. The settings on record: for decrease of association constant / decrease of capacity factor / increase of binding sites: 10 °C to 45 °C; for capacity factor on the β 2-AR column: concentration 4.0 µM; for Kd: Association constant; for main force of the binding: semi-empirical rules of Ross et al.; for ΔS^θ: van't Hoff plot, 10-45 °C. The text has this: The thermodynamic interaction between β 2-AR and ephedrine plus pseudoephedrine was described by the van't Hoff equation, listed as Eq. (3) and (4). [drawing 3] (3) [drawing 4] (4)
In these equations, R is the ideal gas constant (8.31 J/mol/K), and T is the temperature in Kelvin. According to the semi-empirical rules summarised by Ross et al., when ΔG^θ<0, ΔH^θ>0 and ΔS^θ>0, hydrophobic interaction is the main interaction force during the binding process of a drug to protein. […] If ΔG^θ<0, ΔH^θ<0 and ΔS^θ<0, Van der Waals forces or hydrogen bonds are the major forces of the binding.
The thermodynamic investigation of ephedrine and pseudoephedrine on oriented immobilised β 2-AR was performed at 10, 20, 30, 37 and 45 °C. Eq. (3) and (4) were used to calculate the free energy, enthalpy and entropy during the binding of the two drugs to the receptor. The semi-empirical rules by Ross et al. were utilised to reveal the binding mechanism process of the two drugs to β 2-AR.

The test system of the next assay is papillary muscle. Also on record: method as in PMID 3004791. The settings on record: positive inotropic effect on the papillary muscle; cited from earlier work.
A further assay has as its target β2-ARGsαS. Also on record: method as in PMID 9478963. The conditions noted are these: read-out: dissociation constant; cited from earlier work.
A further assay has as its target wild-type β 2-AR. Also on record: method as in PMID 8095262. The conditions noted are these: read-out: dissociation constant; cited from earlier work.
[4] abbreviates: 12 µM ephedrine in mobile phase.
[5] abbreviates: 24 µM ephedrine in mobile phase.
[6] abbreviates: 30 µM ephedrine in mobile phase.

Take `COc1cc2nc(N3CCN(C(=O)C4CCCO4)CC3)nc(N)c2cc1OC` (centres unmarked) [terazosin]: in the assay on Immobilized β 2-AR, the “peak retained or non-retained on β 2-AR column” value (shortened to “peak retained or non-retained”) is “Non-retained” and the “Retention times, Immobilized β 2-AR” value came out at 1.6 min.

Regarding `COC(=O)CCc1ccc(OCC(O)CNC(C)C)cc1` (centres unmarked) [esmolol], in the assay on Immobilized β 2-AR, the “peak retained or non-retained” value is “Non-retained” and the “Retention times, Immobilized β 2-AR” value was 1.6 min.

Turning to `CC(C)NCC(O)c1ccccc1Cl` (centres unmarked) [clorprenaline], in the assay on Immobilized β 2-AR, the “peak retained or non-retained” value was “Retained” and the “Retention times, Immobilized β 2-AR” value is 9.9 min. Also, the “Retention times, Immobilized β 2-AR” value in the assay with Immobilized β 2-AR (listed as Clorprenaline) turned out to be 12.5 min.

As for `CN[C@@H](C)[C@@H](O)c1ccccc1` [pseudoephedrine, 1S,2S-pseudoephedrine], at β 2-AR [1], the “concentration of the binding site” value is on record as “(8.92±0.06) ×10^−4 M”. Further, the “capacity factor k′” value at β 2-AR [1] (2 µM ephedrine in mobile phase) is reported as 5.87±0.01; on β 2-AR [1] (4 µM ephedrine in mobile phase), 5.81±0.01; at β 2-AR [1] (8 µM ephedrine in mobile phase), 5.73±0.01; at β 2-AR [1] (setting [4]), 5.66±0.01; on β 2-AR [1] (16 µM ephedrine in mobile phase) it was 5.54±0.03; at β 2-AR [1] (setting [5]), 5.47±0.03. In addition, the “capacity factor k′” value at β 2-AR [1] (setting [6]) was found to be 5.38±0.01. At β 2-AR [1], the “types of binding site on β 2-AR” value is “Only one type of binding site”. For the same molecule, the EC50 in the assay with β 2-AR [2] is 309 µM. Besides, the binding sites amounted to 807 µM at β 2-AR [3] (10 °C) and 948 µM on β 2-AR [3] (45 °C). The “decrease of association constant” value at β 2-AR [3] is on record as 1.5 fold. In addition, the “decrease of capacity factor” value at β 2-AR [3] is reported as 1.2 fold. Moreover, at β 2-AR [3], the “increase of binding sites” value is 1.2 fold. Further, the “capacity factor on the β 2-AR column” value at β 2-AR [3] (10 °C) was determined as 6.36; on β 2-AR [3] (45 °C), 5.60. Also, the Kd at β 2-AR [3] (283.15 K) is 202 µM; at β 2-AR [3] (293.15 K), 239 µM; on β 2-AR [3] (303.15 K), 249 µM; at β 2-AR [3] (310.15 K), 263 µM; at β 2-AR [3] (318.15 K), 299 µM. For the same molecule, the “main force of the binding” value at β 2-AR [3] was “electrostatic forces”. Moreover, at β 2-AR [3], the “ΔS^θ” value was 44.13±0.01 J/mol·K.

`CN[C@H](C)[C@@H](O)c1ccccc1` [1S,2R-ephedrine]: the EC50 with β 2-AR [2] was 72 µM.

Regarding `CN(C)C(=O)Oc1cc(OC(=O)N(C)C)cc(C(O)CNC(C)(C)C)c1` (centres unmarked) [bambuterol], in the assay on Immobilized β 2-AR, the “peak retained or non-retained” value is “Retained” and the “Retention times, Immobilized β 2-AR” value stood at 49.1 min.

Turning to `CC(C)(C)NCC(O)c1ccccc1Cl` (centres unmarked) [tobuterol], in the assay with Immobilized β 2-AR, the “peak retained or non-retained” value was “Retained” and the “Retention times, Immobilized β 2-AR” value came out at 12.5 min. Further, the “Retention times, Immobilized β 2-AR” value with Immobilized β 2-AR (listed as Tobuterol) worked out at 9.9 min.

Regarding `CN[C@@H](C)[C@H](O)c1ccccc1` [ephedrine, 1R,2S-ephedrine], the Kd is 168 µM on β 2-AR [1]; 139 µM on β 2-AR [3] (283.15 K); 149 µM at β 2-AR [3] (293.15 K); 161 µM at β 2-AR [3] (303.15 K); 168 µM on β 2-AR [3] (310.15 K); 193 µM on β 2-AR [3] (318.15 K). The Kd on β2-ARGsαS is 5.1 ± 1.3 µM; on wild-type β 2-AR it was 8 µM. Also, the “concentration of the binding site” value on β 2-AR [1] is reported as “(8.92±0.06) ×10^−4 M”. Besides, the “capacity factor k′” value on β 2-AR [1] (4 µM ephedrine in mobile phase) came out at 5.01±0.02; on β 2-AR [1] (8 µM ephedrine in mobile phase) it was 4.84±0.02; at β 2-AR [1] (setting [4]), 4.58±0.03; on β 2-AR [1] (20 µM ephedrine in mobile phase), 4.31±0.01; at β 2-AR [1] (setting [5]) it was 4.08±0.01; on β 2-AR [1] (setting [6]), 3.80±0.01. On β 2-AR [1] (34 µM ephedrine in mobile phase), the “capacity factor k′” value was 3.64±0.01. Besides, the association constant entry on β 2-AR [1] (direct competitive study, pseudoephedrine injected, ephedrine as mobile phase additive) is “(5.98±0.24)×10^3 /M”; at β 2-AR [1] (self-competitive study, ephedrine as analyte and competing agent), “(5.94±0.05)×10^3 /M”. In addition, the “association constant KA” value is “KA ephedrine = (5.94±0.05)×10^3 M^−1” at β 2-AR [1] (injection analyte ephedrine (self-competitive)); “(5.94±0.05)×10^3 M^−1” on β 2-AR [1] (injection analyte ephedrine (self-competitive), listed as 1R,2S-ephedrine); “KA ephedrine = (5.98±0.24)×10^3 M^−1” at β 2-AR [1] (injection analyte pseudoephedrine (direct competitive, ephedrine in mobile phase)). Also, the “types of binding site on β 2-AR” value at β 2-AR [1] is “Only one type of binding site”. Moreover, the pD2 result in the assay on papillary muscle is listed as “about 5.95”. In addition, the binding sites on β 2-AR [3] (10 °C) came out at 807 µM; on β 2-AR [3] (45 °C) it was 948 µM. The “decrease of association constant” value at β 2-AR [3] was 1.4 fold. Besides, at β 2-AR [3], the “decrease of capacity factor” value was found to be 1.2 fold. Further, the “increase of binding sites” value on β 2-AR [3] is 1.2 fold. The “capacity factor on the β 2-AR column” value at β 2-AR [3] (10 °C) worked out at 5.40; on β 2-AR [3] (45 °C) it was 4.63. Also, the “contribution of ΔH^θ to ΔG^θ” value at β 2-AR [3] (37 °C) is 29.15%. On β 2-AR [3] (37 °C), the “contribution of ΔS^θ to ΔG^θ” value is 70.85%. The “main force of the binding” value at β 2-AR [3] is on record as “Electrostatic interaction”. Also, on β 2-AR [3], the “ΔS^θ” value was found to be 50.94±0.31 J/mol·K.
